Reference: US20080280837A1, “Biologically Active Compounds with Anti-Angiogenic Properties” (priority 2004, published 2008)
Several values for one entry are separate records, joined by “and”; a condition that tells them apart may be missing. Equal values may be shown once. Read-outs that look alike come from different tables or passages of the source.

Tests used:
[1] = test system: chicken embryo chorioallantoic membrane (CAM) vasculature; assay: Early chicken embryo chorioallantoic membrane (earlyCAM) assay; type: in vivo; settings: for Aretry length (pixels) / CAM increase (fold) / Relative artery length (absolute vessel length (pixels)/CAM area (pixels)) / Relative total vessel length (absolute vessel length (pixels)/CAM area (pixels)) / Relative vein length (absolute vessel length (pixels)/CAM area (pixels)) / Total vessel length (pixels) / Vein diameter (pixels) / Vein length (pixels): mean ± SEM, n = 8
Protocol: Vein diameter was included as a measure of vessel growth. Where there was more than one major vein branch, the diameters of both were added together to give a total vein diameter. In the control CAM there were two well developed vein branches of similar diameter. In contrast, in the treated CAM there was a single major vein branch. Total vein diameter is 239 pixels in the control CAM, and only 107 pixels in the treated CAM.
When “compound 1” was applied to the CAM, there were dose responsive reductions in CAM growth and vasculature. The effects on CAM growth and vessel parameters were expressed as pixel measures (Table 1) and also as a percentage of the vehicle treated control group (FIG. 1). Vein lengths were reduced at all dose levels of “compound 1”, both in pixel and percentage terms, with a reduction to 67% of control at 5 nmol (p<0.05). […] When artery and vein lengths were combined to give total vessel length there was a significant reduction at the 5 nmol level (FIG. 1; p<0.05). A strong trend to reduced CAM growth with increasing doses of “compound 1” was also present.

[2] = In vivo pharmacokinetic evaluation after i.v. and p.o. administration to rats; parameters: species or system rat; settings: for clearance: read-out: Cltotal (total plasma clearance); for Vd: read-out: VdB (volume of distribution during the elimination phase); for bioavailability: calculated using AUC0-480, read-out: BA (oral bioavailability)
Protocol: Intravenous infusion of “compound 1” (2 mg/Kg) over 5 minutes to two rats and arterial blood sampled up to 24 hours.
Oral administration of “compound 1” (25 mg/Kg as HPMC suspension) via oral gavage to two rats and arterial blood sampled up to 24 hours.
Plasma concentrations of “compound 1” determined by MS (LOQ<0.01 μM)
CLtotal=total plasma clearance after IV administration Vdβ=volume of distribution during the elimination phase after IV administration BA=oral bioavailability AUCIV=area under the plasma concentration versus time profile from time zero to infinity after IV administration AUCoral=area under the plasma concentration versus time profile from time zero to infinity after oral administration β=terminal elimination rate constant after IV administration

[3] = test system: Jurkat cell line; assay: Cell proliferation assay (CellTiter 96 AQueous One) as indicator of toxicity, Jurkat; type: cell-based; settings: 100 μM
Protocol: A simple cell proliferation assay was used to determine the in vitro cytotoxicity of “compound 1.” Selected cell lines were cultured according to their specific requirements. The optimal cell density required for each cell line was determined. All compounds were tested at a single concentration in triplicate. Cell viability was determined using the CellTiter 96® AQueous One reagent from Promega Corporation.
Assays are performed by adding the test compound to the cells in culture and incubating the cells for a fixed period. The number of viable cells remaining after the incubation period is determined by adding a small amount of the CellTiter 96® AQueous One Solution Reagent directly to culture wells, incubating for 1-4 hours and then recording absorbance at 490 nm with a 96 well plate reader.
Controls in the assay include untreated cells, wells without cells and cells treated with know cytotoxic agents. Data is presented as % inhibition of cell proliferation.

[4] = target: T1, SSTR-4 (Homo sapiens, UniProt P31391); assay: Radioligand binding screen against somatostatin subtype SSTR-4 (SST4 assay); settings: concentration required to displace 50% of the competitive radioligand; read-out: IC50 SSTR4
T1 construct: expressed in transfected cells
Protocol: Receptor membrane preparations containing the desired cloned receptor (for example cloned human somatostatin receptor subtype 5, SSTR5) and radio-labeled ligand (for example 3-[^125I]iodotyrosyl^11 Somatostatin-14)) were diluted at the concentration required for testing and according to the specific parameters associated with the selected receptor-ligand combination, including receptor Bmax, ligand Kd and any other parameters necessary to optimize the experimental conditions. When tested for competition activity to the reference ligand, “compound 1” was mixed with membrane suspension and the radiolabeled reference ligand (with or without an excess of cold ligand to the receptor for determination of non-specific binding) and incubated at the temperature required by internal standard operating procedures. Following incubation, the binding reaction was stopped by the addition of ice-cold washing buffer and filtered on appropriate filters, which are then counted. Data analysis and curve-fitting was performed with XLfit (IDBS).
10 mM solutions of test compounds in 100% DMSO were prepared. ˜160 μl was used for each dilution (20 μl/well in triplicate).
A 1.25 mM assay stock was prepared by making a 1:8 dilution of the 10 mM solution. (To 30 μL of the 10 mM solution was added 210 μL milli-Q H2O. A 1:5 dilution series in milli-Q H2O was then prepared.
Assays were performed in triplicate at each concentration within the 1:5 dilution series: 250 μM, 50 μM, 10 μM, […], 0.4 μM, 0.08 μM, 0.016 μM, 0.0032 μM, etc. (for SST4 assay) and 125 μM, 10 μM, 2 μM, 1 μM, 0.5 μM, etc (for SST5 assay).
In primary screening experiments compounds were tested in duplicate for a particular concentration.

[5] = In vivo pharmacokinetic evaluation after i.v. and p.o. administration to rats; settings: rat, plasma, po, 25 mg/Kg, Rat 3, PO; calculated using AUC0-480; read-out: BA (oral bioavailability)
[6] = rat, plasma, iv, 2 mg/Kg, IV, Mean ± SD of two rats
[7] = rat, plasma, iv, 2 mg/Kg, Rat 1, IV
[8] = rat, plasma, iv, 2 mg/Kg, Rat 2, IV

T1 sequence (P31391 whole entry): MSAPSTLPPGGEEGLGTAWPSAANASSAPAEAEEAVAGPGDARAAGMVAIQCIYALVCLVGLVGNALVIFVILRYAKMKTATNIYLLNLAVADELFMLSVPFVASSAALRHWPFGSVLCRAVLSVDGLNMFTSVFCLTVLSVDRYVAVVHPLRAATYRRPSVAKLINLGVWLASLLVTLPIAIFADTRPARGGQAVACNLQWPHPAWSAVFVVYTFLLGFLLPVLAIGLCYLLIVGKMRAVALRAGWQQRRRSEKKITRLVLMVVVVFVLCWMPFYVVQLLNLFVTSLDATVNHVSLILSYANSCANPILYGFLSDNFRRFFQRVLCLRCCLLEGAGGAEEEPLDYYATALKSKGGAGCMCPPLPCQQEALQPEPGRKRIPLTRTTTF

- VdB (volume of distribution during the elimination phase) ([2]; IV, Mean ± SD of two rats): 3.29 ± 0.56 L/kg
- Tmax ([2]; Rat 4, PO 25 mg/Kg): 0.333 h
- Tmax ([2]; plasma, Rat 3, PO 25 mg/Kg, read-out: Tmax (converted)): 0.333 h
- Tmax ([2]; rat, plasma, 25 mg/Kg, PO, mean of two rats, read-out: Tmax (converted)): 0.333 h
- clearance [2, 6]: 8.2 mL/min/kg
- Vd [2, 6]: 3.3 L/kg
- half-life ([2]; rat, plasma, iv, 2 mg/Kg, IV, Mean ± SD of two rats, read-out: t1/2 (elimination half-life) (converted)): ~4.6 h
- Cmax ([2]; rat, plasma, iv, 2 mg/Kg, Mean ± SD of two rats): 31.9 ± 2.27 µM
- Cmax ([2]; rat, plasma, iv, 2 mg/Kg, Rat 1, IV infusion 2 mg/Kg over 5 minutes): 30.3 µM
- clearance [2, 7]: 7.53 mL/min/kg
- Vd [2, 7]: 2.9 L/kg
- half-life ([2]; rat, plasma, iv, 2 mg/Kg, Rat 1, IV, read-out: t1/2 (converted)): 4.45 h
- Cmax ([2]; rat, plasma, iv, 2 mg/Kg, Rat 2, IV infusion 2 mg/Kg over 5 minutes): 33.5 µM
- clearance [2, 8]: 8.86 mL/min/kg
- Vd [2, 8]: 3.69 L/kg
- half-life ([2]; rat, plasma, iv, 2 mg/Kg, Rat 2, IV, read-out: t1/2 (converted)): 4.76 h
- Cmax ([2]; rat, plasma, po, 25 mg/Kg, Mean ± SD of two rats): 4.95 ± 2.84 µM
- bioavailability ([2]; rat, plasma, po, 25 mg/Kg, PO, Mean ± SD of two rats): ~5.2%
- bioavailability ([2]; rat, plasma, po, 25 mg/Kg, Rat 4, PO): 5.38%
- Cmax ([2]; rat, plasma, po, 25 mg/kg, Rat 3, PO 25 mg/Kg HPMC suspension): 6.95 µM
- Cmax ([2]; rat, plasma, po, 25 mg/kg, Rat 4, PO 25 mg/Kg HPMC suspension): 2.94 µM
- IC50 [4]: > 12.5 µM
- bioavailability [5]: 4.95%
SMILES: COC[C@H]1O[C@H](OCCc2ccccc2)[C@H](NC(=O)CCCN)[C@@H](OCc2ccc3ccccc3c2)[C@@H]1O [Compound 1]
- Aretry length (pixels) ([1]; 0.2 nmol): 1870 ± 109^ pixels
- CAM increase (fold) ([1]; 0.2 nmol): 9.9 ± 0.9 fold
- Relative artery length (absolute vessel length (pixels)/CAM area (pixels)) ([1]; 0.2 nmol): 43.0 ± 3.7
- Relative total vessel length (absolute vessel length (pixels)/CAM area (pixels)) ([1]; 0.2 nmol): 79.9 ± 5.8
- Relative vein length (absolute vessel length (pixels)/CAM area (pixels)) ([1]; 0.2 nmol): 36.9 ± 3.4
- Total vessel length (pixels) ([1]; 0.2 nmol): 3498 ± 222^ pixels
- Vein diameter (pixels) ([1]; 0.2 nmol): 191 ± 10 pixels
- Vein length (pixels) ([1]; 0.2 nmol): 1628 ± 183^ pixels
- Artery length as percentage of vehicle treated control (maximal reduction) ([1]; 1 nmol): 86 % of control
- Aretry length (pixels) ([1]; 1 nmol): 1544 ± 214^ pixels
- CAM increase (fold) ([1]; 1 nmol): 9.9 ± 0.8 fold
- Relative artery length (absolute vessel length (pixels)/CAM area (pixels)) ([1]; 1 nmol): 34.7 ± 4.7
- Relative total vessel length (absolute vessel length (pixels)/CAM area (pixels)) ([1]; 1 nmol): 71.3 ± 6.3
- Relative vein length (absolute vessel length (pixels)/CAM area (pixels)) ([1]; 1 nmol): 36.5 ± 2.4
- Total vessel length (pixels) ([1]; 1 nmol): 3169 ± 341^ pixels
- Vein diameter (pixels) ([1]; 1 nmol): 187 ± 15 pixels
- Vein length (pixels) ([1]; 1 nmol): 1625 ± 166^1 pixels
- Reduction in vein diameter versus control ([1]; 5 nmol): approximately 25%
- Aretry length (pixels) ([1]; 5 nmol): 1510 ± 196^ pixels
- CAM increase (fold) ([1]; 5 nmol): 8.9 ± 0.8 fold
- Relative artery length (absolute vessel length (pixels)/CAM area (pixels)) ([1]; 5 nmol): 36.4 ± 3.0
- Relative total vessel length (absolute vessel length (pixels)/CAM area (pixels)) ([1]; 5 nmol): 71.6 ± 3.7
- Relative vein length (absolute vessel length (pixels)/CAM area (pixels)) ([1]; 5 nmol): 35.1 ± 2.6
- Total vessel length (pixels) ([1]; 5 nmol): 2939 ± 292^1 pixels
- Vein length (pixels) ([1]; 5 nmol): 1429 ± 141^1 pixels
- Vein diameter (pixels) ([1]; 5 nmol, p = 0.057): 157 pixels and 157 ± 23 pixels
- Vein length as percentage of vehicle treated control ([1]; 5 nmol, p<0.05): 67 % of control
- Total vein diameter ([1]; single treated CAM (control CAM 239 pixels), dose not stated): 107 pixels
- Inhibition of cell proliferation [3]: no inhibitory effect
